In patent publication US11459356B2, “Neuronal nicotinic acetylcholine receptor-targeting polypeptide and use thereof” (priority 2021, dated 2022):
Positions of bridges follow the written chain, without caps; N, C: chain ends. No end group written: not given here.

Tested on: human nAChR
Test: Calcium response of nAChR-overexpressing CN21 cells pre-incubated with polypeptide
Assay type: cell-based
Conditions: CN21 cells expressing human nAChR; polypeptide 10^-11-10^-5 M; 6 hours incubation; FIG. 5
Procedure: The bioactivity of polypeptide nAChR_BP was assessed by using […] expressing human nAChR. The CN21 cells were incubated in 12-well plates one day prior. After 25 hours of incubation, the media were removed and new media containing various concentrations (10^−11-10^−5 M) of the polypeptide were added to incubate the cells. Six hours later, concentrations of calcium ion were measured using a kit, such that the activity of nAChR_BP was determined in vitro by assessing the antagonism of the nAChR mediated increase of [Ca2+] in CN21 cells.

nAChR_BP: novel polypeptide with amino acid sequence of SEQ ID NO: 1 that targets neuronal nicotinic acetylcholine receptor (ACCLFNCHSWVGC; disulfide 2-13, 3-7)
antagonism of the nAChR mediated increase of [Ca2+] in CN21 cells: capable of significantly inhibiting nAChRs
